Test [1] has as its target T1, GDP-loaded KRAS (1-169) G12C, C51S, C80L, C118S (Homo sapiens, UniProt P01116, C118S/C51S/C80L/G12C).
T1 construct: GDP-loaded KRAS (1-169) G12C, C51S, C80L, C118S
As to the kind of experiment: Mass Spectrometry Reactivity Assay (MSRA): covalent adduct of compound and KRAS G12C, Percent Modification. It counts as binding. The following applies: for MSRA (% modification) 5.0 μM 0.017 hr: 5.0 μM compound. The procedure:
Mass Spectrometry Reactivity Assay (MSRA)
Compounds presented in the present invention covalently bind to KRAS G12C using MSRA to detect a covalent adduct of the exemplary compound and KRAS G12C.
GDP-loaded KRAS (1-169) G12C, C51S, C80L, C118S were diluted in the protein assay buffer 25 mM Hepes pH7.5, 200 mM NaCl, 5% glycerol to concentration of 5 μM and 20 μl of protein was transferred into 96-well plate. Initial compound stocks were generated at concentrations 100-fold higher that their desired assay concentrations. See K-Ras(G12C) inhibitors allosterically control GTP affinity and effector interactions; Ostrem J M, Peters U, Sos M L, Wells J A, Shokat K M; Nature. 2013, Nov. 28; 503(7477):548-51.
Exemplary compounds dissolved in DMSO were diluted 100-fold into solution containing 20 μl of 5 μM KRAS protein in the 96-well plate to initiate the reaction. Mosquito (TPP Lab tech) liquid handling robot was used to add compounds to protein solution. Typical final concentration of the compounds was 5 μM or 10 μM. The plates were placed on a shaker for 1 min at RT, sealed and incubated at room temperature for specified time period. 5 μl of reaction mix was added to 10 μl of 0.2% formic acid stop solution and mixed well. Typical end points were 1, 15, 30, and 60 min.
Data were collected using Waters Acquity H-class UPLC system/Xevo G2-XS TOF mass spectrometer. The protein was injected in their liquid phase onto a Bruker Microtrap protein column TR1/15109/03. The following buffers were used to set LC gradient: Buffer A: 0.2% formic acid H2O; B: 0.2% formic acid CAN. The protein was eluted from the column using the following LC Gradient: 0-0.4 min, 10% B to 30% B; 0.4 min-2.4 min, to 90% B, 2.5 min, 10% B, 3 min, 10% B. Initial data analysis was performed using MaxEnt software right after data acquisition.
The standard auto processing function was used to define percentage of unmodified and modified KRAS protein using MexEnt software right after data acquisition. The highest peak was defined as 100% while smaller peak as assigned the number defined by autoprocessing function. The percent of modification corresponding to modified with exemplary compound and unmodified KRAS GDP-loaded KRAS (1-169) G12C, C51S, C80L, C118S were exported to Xcel data analysis software.
The percent of modified protein at the defined concentration of exemplary compound was calculated using the following formula: % mod=Num of modified peak/Sum of modified+unmodified. The resultant value defined as Percent Modification (PM) and an increase in PM reflects that the specific compound is better than other compounds at specified compound concentration at a given time point.

The target in test [2] is KRAS G12C (Homo sapiens, UniProt P01116, G12C). The test is described as follows: Cell Activity Assay: accumulation of GDP-bound KRAS G12C in MIAPaCa-2 cells (Raf-1 RBD capture, MSD readout). Format: cell-based. Set-up: endogenous in cells; host or cells: MIAPaCa-2. As to conditions: 6 hours, assay limit is 30.00. The method, then: Compounds presented in the present invention lead to the accumulation of the GDP bound Ras upon treatment of human cancer cell line.
The accumulation of the GDP-bound KRAS G12C in cellular environment was measured based on the principle that KRAS G12C only binds to its downstream kinase; Raf-1 (MAP Kinase Kinase Kinase), when in its active-GTP bound state. In this state, Ras binded to a domain of Raf-1 kinase referred to as the Ras Binding Domain (RBD).
MIAPaCa-2 cells were grown in RPMI 1640 medium (Gibco 11875) supplemented with 10% fetal bovine serum and 1% penicillin/streptomycin. Cells were seeded in 96-well tissue culture plates at a density of 30,000 cells/well and allowed to attach for 16-24 hours. Test compounds were prepared as a 10 mM stock in DMSO and serially diluted in 100% DMSO using a 3-fold dilution scheme. An intermediate 5× concentrated plate in complete growth medium was made and 25 μl/well was added to the 100 μl of cells for a final concentration of 0.3% DMSO. Each concentration of exemplary compound was tested in duplicate. The negative control wells were cells with control inhibitor at 10 μM, and the positive control wells were cells without drugs, DMSO only. Plates were incubated for 6 hours at 37° C., 5% CO2. Following treatment, cells were washed 3× with ice-cold PBS and 115 μl/well ice-cold 1× Assay/Lysis. Buffer with protease inhibitors was added (25 mM HEPES, pH 7.5, 150 mM NaCl, 1% NP-40, 10 mM MgCl2, 1 mM EDTA, 2% Glycerol). Following lysis samples were frozen at −80° C.
Raf-1 RBD (LJIC-1988A1) was diluted to 100 ng/well in PBS and 5 μl/well was spot coated onto MSD high bind SECTOR plates (L15XB). Plates were incubated at room temperature for 1 hour on an orbital shaker. Plates were washed with PBS/0.05% Tween-20 and 50 μl/well of thawed lysate samples were added, followed by 50 μl of 1% MSD Blocker A in PBS/0.05 Tween-20 (R93BA). Plates were incubated for 1 hour on an orbital shaker and washed with PBS/0.05% Tween-20. 25 μl/well of Anti-pan-Ras Antibody (Cell Biolabs 244003) diluted 1:3000 was added in 1% MSD Blocker A solution and plates were incubated for 1 hour on an orbital shaker and washed with PBS/0.05% Tween-20. SULFO-TAG goat anti-mouse secondary antibody (MSD R32AC) was diluted 1:500 in MSD Blocker A solution and added at 25 μL/well. Plates were incubated for 1 hour on an orbital shaker and washed with PBS/0.05% Tween-20. 150 μl/well of Read Buffer T (MSD R92TC) diluted 1:3 in H2O was added and plates were read on a Meso Scale Discovery Sector Imager S600.
KRAS signal was normalized to maximum inhibition and DMSO control values, and IC50 values were generated using a 4 parameter fit of the dose response curve. The decrease in IC50 reflects that the exemplary compound lead to a higher level of accumulation of GDP-bound KRAS G12C than another exemplary compounds at specific timepoint of treatment of cancer cell line.

Molecules are shown by their SMILES.

Data on 14 molecules can be found in patent publication US10662204B2 (PFIZER INC., priority 2018, dated 2020).

One may read the IC50 as the concentration needed to halve the response being measured. Low readings indicate inhibition by little substance, high ones a need for much substance. As for `C=CC(=O)N1CCN(c2ncnc3c(Oc4c(C)ccc5[nH]nc(C)c45)nccc23)CC1` [Example 17A, 1-(4-{8-[(3,5-dimethyl-1H-indazol-4-yl)oxy]pyrido[3,4-d]pyrimidin-4-yl}piperazin-1-yl)prop-2-en-1-one], the “MSRA (% modification) 10 μM 0.50 hr” value in test [1] (10 μM compound) came to 9%. The same molecule had an IC50 in test [2] of 24.1 µM. With `C=CC(=O)N1CCN(c2nc(O[C@@H]3CN(C)C[C@H]3OC)nc3c(Oc4c(Cl)c(Cl)cc5[nH]ncc45)nc(Cl)cc23)CC1` [Example 29G, 1-[4-(6-chloro-8-[(5,6-dichloro-1H-indazol-4-yl)oxy]-2-{[(3R,4R)-4-methoxy-1-methylpyrrolidin-3-yl]oxy}pyrido[3,4-d]pyrimidin-4-yl)piperazin-1-yl]prop-2-en-1-one], the “MSRA (% modification) 5.0 μM 0.017 hr” value in test [1] was determined as 82%. This molecule gave an IC50 in test [2] of 0.005 µM. For the molecule `C=CC(=O)N1CCN(c2nc(OC[C@@H]3CCCN3C)nc3c(Oc4c(Cl)c(F)cc5[nH]ncc45)nc(Cl)cc23)C[C@@H]1C` [Example 07G, 1-[(2S)-4-(6-chloro-8-[(5-chloro-6-fluoro-1H-indazol-4-yl)oxy]-2-{[(2S)-1-methylpyrrolidin-2-yl]methoxy}pyrido[3,4-d]pyrimidin-4-yl)-2-methylpiperazin-1-yl]prop-2-en-1-one], the “MSRA (% modification) 10 μM 0.25 hr” value in test [1] (10 μM compound, 0.25 hr) is listed as 77%. Further, the IC50 in test [2] was found to be 0.404 µM.

For `C=CC(=O)N1CCN(c2nc(OCCN(C)C)nc3c(Oc4c(C)ccc5[nH]ncc45)cccc23)CC1` [Example 03E, 1-(4-{2-[2-(dimethylamino)ethoxy]-8-[(5-methyl-1H-indazol-4-yl)oxy]quinazolin-4-yl}piperazin-1-yl)prop-2-en-1-one], the “MSRA (% modification) 10 μM 0.50 hr” value in test [1] (10 μM compound) is reported as 40%. Also, the midpoint of inhibition in test [2], the IC50, lay at 1.44 µM.

`C=CC(=O)N1CCN(c2ncnc3c(Oc4c(Br)ccc5[nH]ncc45)nccc23)CC1` [Example 15C, 1-(4-{8-[(5-bromo-1H-indazol-4-yl)oxy]pyrido[3,4-d]pyrimidin-4-yl}piperazin-1-yl)prop-2-en-1-one]: the “MSRA (% modification) 10 μM 0.50 hr” value in test [1] (10 μM compound) was 12%. As to `C=CC(=O)N1CCN(c2nc(O[C@@H]3CN(C)C[C@H]3OC)nc3c(Oc4c(Cl)c(F)cc5[nH]ncc45)nccc23)C[C@@H]1C` [Example 37I, 1-[(2S)-4-(8-[(5-chloro-6-fluoro-1H-indazol-4-yl)oxy]-2-{[(3R,4R)-4-methoxy-1-methyl-pyrrolidin-3-yl]oxy}pyrido [3,4-d]pyrimidin-4-yl)-2-methyl-piperazin-1-yl]prop-2-en-1-one], in test [1], the “MSRA (% modification) 5.0 μM 0.017 hr” value is given as 16%. For `C=CC(=O)N1CCN(c2nc(OC3CN(C)CC34CC4)nc3c(Oc4c(Cl)c(F)cc5[nH]ncc45)nccc23)CC1` (stereo not drawn) [Example 26I, 1-(4-{8-[(5-chloro-6-fluoro-1H-indazol-4-yl)oxy]-2-[(5-methyl-5-azaspiro [2.4]heptan-7-yl)oxy]pyrido [3,4-d]pyrimidin-4-yl}piperazin-1-yl)prop-2-en-1-one], the “MSRA (% modification) 5.0 μM 0.017 hr” value in test [1] stood at 17%.

With `C=CC(=O)N1CCN(c2nc(O[C@@H]3CCN(C)C[C@H]3C)nc3c(Oc4c(Cl)c(F)cc5[nH]ncc45)nccc23)CC1` (racemic) [Example 29I, rac-1-[4-(8-[(5-chloro-6-fluoro-1H-indazol-4-yl)oxy]-2-{[(3R,4R)-1,3-dimethyl-piperidin-4-yl]oxy}pyrido [3,4-d]pyrimidin-4-yl)piperazin-1-yl]prop-2-en-1-one], the “MSRA (% modification) 5.0 μM 0.017 hr” value in test [1] was 16%. On the same count and under the same terms, the result for `C=CC(=O)N1CCN(c2nc(Oc3nn(C)c4c3CCN(C)C4)nc3c(Oc4c(Cl)c(F)cc5[nH]ncc45)nccc23)CC1` [Example 47I, 1-(4-{8-[(5-chloro-6-fluoro-1H-indazol-4-yl)oxy]-2-[(1,6-dimethyl-4,5,6,7-tetrahydro-1H-pyrazolo [3,4-c]pyridin-3-yl)oxy]pyrido [3,4-d]pyrimidin-4-yl}piperazin-1-yl)prop-2-en-1-one] reads 14%. On the same count and under the same terms, the result for `C=CC(=O)N1CCN(c2nc(O[C@@H]3CCN(CCOC)C[C@H]3C)nc3c(Oc4c(Cl)c(F)cc5[nH]ncc45)nccc23)CC1` (racemic) [Example 27I, rac-1-[4-(8-[(5-chloro-6-fluoro-1H-indazol-4-yl)oxy]-2-{[(3R,4R)-1-(2-methoxy-ethyl)-3-methyl-piperidin-4-yl]oxy}pyrido [3,4-d]pyrimidin-4-yl)piperazin-1-yl]prop-2-en-1-one] reads 15%. Consider `C=CC(=O)N1CCN(c2ncnc3c(Oc4c(Br)ccc5[nH]ncc45)cccc23)CC1` [Example 11C, 1-(4-(8-((5-bromo-1H-indazol-4-yl)oxy)quinazolin-4-yl)piperazin-1-yl)prop-2-en-1-one], for which the “MSRA (% modification) 10 μM 0.50 hr” value in test [1] (10 μM compound) was determined as 26%.

Turning to `C=CC(=O)N1CCN(c2nc(Oc3cc4n(n3)CCN(C)C4)nc3c(Oc4c(Cl)c(F)cc5[nH]ncc45)nccc23)CC1` [Example 45I, 1-(4-{8-[(5-chloro-6-fluoro-1H-indazol-4-yl)oxy]-2-[(5-methyl-4,5,6,7-tetrahydro-pyrazolo [1,5-a]pyrazin-2-yl)oxy]pyrido [3,4-d]pyrimidin-4-yl}piperazin-1-yl)prop-2-en-1-one], the “MSRA (% modification) 5.0 μM 0.017 hr” value in test [1] is on record as 7%. Still for that read-out and setting: next, `C=CC(=O)N1CCN(c2nc(O[C@H]3CN(C)C[C@H]3C)nc3c(Oc4c(Cl)c(F)cc5[nH]ncc45)nccc23)CC1` (racemic) [Example 25I, rac-1-[4-(8-[(5-chloro-6-fluoro-1H-indazol-4-yl)oxy]-2-{[(3S,4S)-1,4-dimethyl-pyrrolidin-3-yl]oxy}pyrido [3,4-d]pyrimidin-4-yl)piperazin-1-yl]prop-2-en-1-one]: 6%. Same read-out and setting: the result for `C=CC(=O)N1CCN(c2nc(O[C@@H]3CN(C)C[C@H]3C)nc3c(Oc4c(Cl)c(F)cc5[nH]ncc45)nccc23)CC1` (racemic) [Example 24I, rac-1-[4-(8-[(5-chloro-6-fluoro-1H-indazol-4-yl)oxy]-2-{[(3S,4R)-1,4-dimethyl-pyrrolidin-3-yl]oxy}pyrido [3,4-d]pyrimidin-4-yl)piperazin-1-yl]prop-2-en-1-one] reads 20%.
